Reference: US8008303B2, “Biphenyl derivatives and their use in treating hepatitis C” (AstraZeneca AB, priority 2005, dated 2011)
Read-outs that look alike come from different tables or passages of the source.

Columns and labels:
[1] = system: HCV replicon cells Huh 9B; assay: HCV replicon assay (luciferase readout); format: cell-based
How it was run: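 Compounds, made up at twice final strength (final DMSO 1%), were added to subgenomic replicon cells one day after plating. Incubation then ran 72 h at 37 °C, 5% CO2, without G418. Replication was quantified as firefly luciferase luminescence in lysed cells, with cytotoxicity assessed on a duplicate clear plate.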

[2] = system: HCV replicon cells Huh 9B; format: cell-based
[3] = Hepatitis C virus, 72 h, concentration reducing replicon level (luciferase activity) by 50% vs untreated cell control, 72 h incubation
[4] = concentration reducing total cell area by 50% relative to DMSO controls, methylene blue, absorbance 620 nm, 72 h incubation

Compound | IC50 [1] [nM] | TD50 [2] | IC50 [1, 3] [nM] | TD50 [2, 4]
Cc1cc(NC(=O)c2ccc(C)c(-c3ccc(C(=O)Nc4ccc(CN5CCS(=O)(=O)CC5)cc4)cc3)c2)sn1 [Example 145, 6-Methyl-biphenyl-3,4′-dicarboxylic acid 4′-{[4-(1,1-dioxo-1lambda*6*-thiomorpholin-4-ylmethyl)-phenyl]-amide} 3-[(3-methyl-isothiazol-5-yl)-amide]] | 1000 to 5000 | * (key: * < 50 μM; ** > 50 μM) |  | 
Cc1ccc(NC(=O)C2CC2)cc1-c1ccc(NC(=O)c2ccc(CN3CCS(=O)(=O)CC3)cc2)cc1 [Example 149, N-[5′-(Cyclopropanecarbonyl-amino)-2′-methyl-biphenyl-4-yl]-4-(1,1-dioxo-1lambda*6*-thiomorpholin-4-ylmethyl)-benzamide] |  |  | < 1000 | * (* < 50 μM)
CCCS(=O)(=O)N1CCN(Cc2ccc(NC(=O)c3ccc(-c4cc(NC(=O)NC5CCCCC5)ccc4Cl)cc3)cc2)CC1 [Example 253, 2′-Chloro-5′-(3-cyclohexyl-ureido)-biphenyl-4-carboxylic acid {4-[4-(propane-1-sulfonyl)-piperazin-1-ylmethyl]-phenyl}-amide] |  |  | < 1000 | * (* < 50 μM)
CN1CCN(C(=O)Nc2ccc(OC(F)(F)F)c(-c3ccc(C(=O)Nc4ccc(CN5CCN(S(C)(=O)=O)CC5)cc4)cc3)c2)CC1 [Example 239, 4-Methyl-piperazine-1-carboxylic acid {4′-[4-(4-methanesulfonyl-piperazin-1-ylmethyl)-phenylcarbamoyl]-6-trifluoromethoxy-biphenyl-3-yl}-amide] |  |  | < 1000 | * (* < 50 μM)
Cc1ccc(NC(=O)CC2CCCC2)cc1-c1ccc(C(=O)Nc2ccc(CN3CCS(=O)(=O)CC3)cc2)cc1 [Example 166, 5′-(2-Cyclopentyl-acetylamino)-2′-methyl-biphenyl-4-carboxylic acid [4-(1,1-dioxo-1lambda*6*-thiomorpholin-4-ylmethyl)-phenyl]-amide] |  |  | < 1000 | * (* < 50 μM)
CNS(=O)(=O)Cc1ccc(NC(=O)c2ccc(-c3cc(C(=O)Nc4ccc(N5CCOCC5)cc4)ccc3C)cc2)cc1 [Example 54, 6-Methyl-biphenyl-3,4′-dicarboxylic acid 4′-[(4-methylsulfamoylmethyl-phenyl)-amide] 3-[(4-morpholin-4-yl-phenyl)-amide]] | 1000 to 5000 | ** (key: * < 50 μM; ** > 50 μM) |  | 
Cc1ccc(NC(=O)C2CCCCC2)cc1-c1ccc(C(=O)Nc2ccc(-c3ccno3)cc2)cc1 [Example 231, 5′-(Cyclohexanecarbonyl-amino)-2′-methyl-biphenyl-4-carboxylic acid (4-isoxazol-5-yl-phenyl)-amide] |  |  | > 5000 | * (* < 50 μM)
Cc1ccc(C(=O)Nc2ccc(N3CCOCC3)cc2)cc1-c1ccc(C(=O)NCc2cccc(C(F)(F)F)c2)cc1 [Example 10, 6-Methyl-biphenyl-3,4′-dicarboxylic acid 3-[(4-morpholin-4-yl-phenyl)-amide] 4′-(3-trifluoromethyl-benzylamide)] | 1000 to 5000 | * (key: * < 50 μM; ** > 50 μM) |  | 
O=C(Nc1ccc(CN2CCS(=O)(=O)CC2)cc1)c1ccc(-c2cc(NC(=O)C3CC3)ccc2OC(F)(F)F)cc1 [Example 185, 5′-(Cyclopropanecarbonyl-amino)-2′-trifluoromethoxy-biphenyl-4-carboxylic acid [4-(1,1-dioxo-1lambda*6*-thiomorpholin-4-ylmethyl)-phenyl]-amide] |  |  | < 1000 | * (* < 50 μM)
Cc1ccc(C(=O)Nc2ccc(N3CCOCC3)cc2)cc1-c1ccc(NC(=O)c2cccc(Br)c2)cc1 [Example 103, 4′-(3-Bromo-benzoylamino)-6-methyl-biphenyl-3-carboxylic acid (4-morpholin-4-yl-phenyl)-amide] |  |  | 1000 to 5000 | ** (** > 50 μM)
CCOC(=O)c1ccc(-c2cc(NC(=O)OC(C)(C)C)ccc2C)cc1 [Example 210, 5′-tert-Butoxycarbonylamino-2′-methyl-biphenyl-4-carboxylic acid ethyl ester] |  |  | 1000 to 5000 | * (* < 50 μM)
Cc1ccc(C(=O)Nc2ccc(N3CCOCC3)cc2)cc1-c1ccc(C(=O)Nc2ccc3[nH]c(=O)[nH]c3c2)cc1 [Example 79, 6-Methyl-biphenyl-3,4′-dicarboxylic acid 3-[(4-morpholin-4-yl-phenyl)-amide] 4′-[(2-oxo-2,3-dihydro-1H-benzoimidazol-5-yl)-amide]] | > 5000 | * (key: * < 50 μM; ** > 50 μM) |  | 
CC(=O)Nc1ccc(C)c(-c2ccc(C(=O)Nc3ccc(CN4CCS(=O)(=O)CC4)cc3)cc2)c1 [Example 180, 5′-Acetylamino-2′-methyl-biphenyl-4-carboxylic acid [4-(1,1-dioxo-1lambda*6*-thiomorpholin-4-ylmethyl)-phenyl]-amide] |  |  | < 1000 | * (* < 50 μM)
Cc1ccc(C(=O)NCC2CCCO2)cc1-c1ccc(C(=O)Nc2ccc(CN3CCS(=O)(=O)CC3)cc2)cc1 (stereo not shown) [Example 124, 6-Methyl-biphenyl-3,4′-dicarboxylic acid 4′-{[4-(1,1-dioxo-1lambda*6*-thiomorpholin-4-ylmethyl)-phenyl]-amide} 3-[(tetrahydro-furan-2-ylmethyl)-amide]] | 1000 to 5000 | * (key: * < 50 μM; ** > 50 μM) |  | 
Cc1ccc(NC(=O)C2CCCCC2)cc1-c1ccc(C(=O)Nc2ccc(CN3CCCC3)cc2)cc1 [Example 227, 5′-(Cyclohexanecarbonyl-amino)-2′-methyl-biphenyl-4-carboxylic acid (4-pyrrolidin-1-ylmethyl-phenyl)-amide] |  |  | 1000 to 5000 | * (* < 50 μM)
Cc1ccc(NS(=O)(=O)c2ccc(Cl)cc2)cc1-c1ccc(C(=O)Nc2ccc(CN3CCS(=O)(=O)CC3)cc2)cc1 [Example 202, 5′-(4-Chloro-benzenesulfonylamino)-2′-methyl-biphenyl-4-carboxylic acid [4-(1,1-dioxo-1lambda*6*-thiomorpholin-4-ylmethyl)-phenyl]-amide] |  |  | 1000 to 5000 | ** (** > 50 μM)
Cc1ccc(C(=O)Nc2ccc(N3CCOCC3)cc2)cc1-c1ccc(CNC(CO)Cc2cnc[nH]2)cc1 (stereo not shown) [Example 101, 4′-{[1-Hydroxymethyl-2-(3H-imidazol-4-yl)-ethylamino]-methyl}-6-methyl-biphenyl-3-carboxylic acid (4-morpholin-4-yl-phenyl)-amide] |  |  | < 1000 | * (* < 50 μM)
Cc1ccc(C(=O)Nc2ccc(N3CCOCC3)cc2)cc1-c1ccc(C(=O)Nc2ccc(CN3CCS(=O)(=O)CC3)cc2)cc1 [Example 50, 6-Methyl-biphenyl-3,4′-dicarboxylic acid 4′-{[4-(1,1-dioxo-1lambda*6*-thiomorpholin-4-ylmethyl)-phenyl]-amide} 3-[(4-morpholin-4-yl-phenyl)-amide]] | < 1000 | ** (key: * < 50 μM; ** > 50 μM) |  | 
Cc1ccc(C(=O)Nc2ccc(N3CCOCC3)cc2)cc1-c1ccc(C(=O)N2CCCC2)cc1 [Example 15, 6-Methyl-4′-(pyrrolidine-1-carbonyl)-biphenyl-3-carboxylic acid (4-morpholin-4-yl-phenyl)-amide] |  |  | > 5000 | * (* < 50 μM)
O=C(Nc1ccc2[nH]ccc2c1)c1ccc(-c2cccc(C(=O)Nc3ccc(N4CCOCC4)cc3)c2)cc1 [Example 59, Biphenyl-3,4′-dicarboxylic acid 4′-[(1H-indol-5-yl)-amide] 3-[(4-morpholin-4-yl-phenyl)-amide]] | 1000 to 5000 | ** (key: * < 50 μM; ** > 50 μM) |  | 
Cc1ccc(C(=O)NCc2cccc(F)c2)cc1-c1ccc(C(=O)Nc2ccc(CN3CCS(=O)(=O)CC3)cc2)cc1 [Example 123, 6-Methyl-biphenyl-3,4′-dicarboxylic acid 4′-{[4-(1,1-dioxo-1lambda*6*-thiomorpholin-4-ylmethyl)-phenyl]-amide} 3-(3-fluoro-benzylamide)] | < 1000 | * (key: * < 50 μM; ** > 50 μM) |  | 
Cc1ccc(C(=O)NCCCN2CCN(C)CC2)cc1-c1ccc(C(=O)Nc2ccc(N3CCOCC3)cc2)cc1 [Example 9, 6-Methyl-biphenyl-3,4′-dicarboxylic acid 3-{[3-(4-methyl-piperazin-1-yl)-propyl]-amide} 4′-[(4-morpholin-4-yl-phenyl)-amide]] | > 5000 | * (key: * < 50 μM; ** > 50 μM) |  | 
Cc1ccc(C(=O)NC2CCCCCC2)cc1-c1ccc(C(=O)Nc2ccc(CN3CCS(=O)(=O)CC3)cc2)cc1 [Example 147, 6-Methyl-biphenyl-3,4′-dicarboxylic acid 3-cycloheptylamide 4′-{[4-(1,1-dioxo-1lambda*6*-thiomorpholin-4-ylmethyl)-phenyl]-amide}] | 1000 to 5000 | * (key: * < 50 μM; ** > 50 μM) |  | 
Cc1ccc(C(=O)Nc2ccc(N3CCOCC3)cc2)cc1-c1ccc(C(=O)Nc2ccc3ncsc3c2)cc1 [Example 46, 6-Methyl-biphenyl-3,4′-dicarboxylic acid 4′-benzothiazol-6-ylamide 3-[(4-morpholin-4-yl-phenyl)-amide]] | > 5000 | ** (key: * < 50 μM; ** > 50 μM) |  | 
CNC(=O)c1ccc(NC(=O)c2ccc(C)c(-c3ccc(C(=O)Nc4ccc(CN5CCS(=O)(=O)CC5)cc4)cc3)c2)cc1 [Example 141, 6-Methyl-biphenyl-3,4′-dicarboxylic acid 4′-{[4-(1,1-dioxo-1lambda*6*-thiomorpholin-4-ylmethyl)-phenyl]-amide} 3-[(4-methylcarbamoyl-phenyl)-amide]] | 1000 to 5000 | * (key: * < 50 μM; ** > 50 μM) |  | 
Cc1ccc(NC(=O)C2CCC2)cc1-c1ccc(C(=O)Nc2ccc(CN3CCS(=O)(=O)CC3)cc2)cc1 [Example 195, 5′-(Cyclobutanecarbonyl-amino)-2′-methyl-biphenyl-4-carboxylic acid [4-(1,1-dioxo-1lambda*6*-thiomorpholin-4-ylmethyl)-phenyl]-amide] |  |  | < 1000 | * (* < 50 μM)
